Measured values published in US12492179B2, “Substituted ethylamine fused heterocyclic mescaline derivatives” (Enveric Biosciences Canada Inc., priority 2022, dated 2025).

Tests used:
5-HT2C receptor = biological target: T1, 5-HT2C receptor (Homo sapiens, UniProt P28335); test: Eurofins Cerep competition binding assay at 5-HT2C receptor; settings: test ligand 10 μM; [125I](±)DOI 0.1 nM; recombinant receptor, HEK-293 membranes
T1 construct: host or cells: HEK-293
T1 sequence (P28335 33-458): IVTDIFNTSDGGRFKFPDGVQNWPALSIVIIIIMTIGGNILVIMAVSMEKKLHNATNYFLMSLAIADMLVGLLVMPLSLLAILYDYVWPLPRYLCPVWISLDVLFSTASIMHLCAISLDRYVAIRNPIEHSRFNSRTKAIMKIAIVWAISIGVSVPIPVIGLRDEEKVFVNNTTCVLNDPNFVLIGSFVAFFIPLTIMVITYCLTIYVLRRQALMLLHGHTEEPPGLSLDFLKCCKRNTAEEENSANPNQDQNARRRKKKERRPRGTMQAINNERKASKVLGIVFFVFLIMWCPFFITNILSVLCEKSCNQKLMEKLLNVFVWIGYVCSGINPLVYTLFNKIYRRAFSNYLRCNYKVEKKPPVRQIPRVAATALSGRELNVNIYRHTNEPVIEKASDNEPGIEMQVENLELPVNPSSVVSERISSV

alpha2A receptor = biological target: T2, alpha2A receptor (Homo sapiens, UniProt P08913); test: Eurofins Cerep competition binding assay at alpha2A receptor; settings: test ligand 10 μM; [3H]RX 821002 1 nM; recombinant receptor, CHO membranes; read-out: α-2A, percent of control-specific binding
T2 construct: host or cells: CHO
T2 sequence (P08913 1-465): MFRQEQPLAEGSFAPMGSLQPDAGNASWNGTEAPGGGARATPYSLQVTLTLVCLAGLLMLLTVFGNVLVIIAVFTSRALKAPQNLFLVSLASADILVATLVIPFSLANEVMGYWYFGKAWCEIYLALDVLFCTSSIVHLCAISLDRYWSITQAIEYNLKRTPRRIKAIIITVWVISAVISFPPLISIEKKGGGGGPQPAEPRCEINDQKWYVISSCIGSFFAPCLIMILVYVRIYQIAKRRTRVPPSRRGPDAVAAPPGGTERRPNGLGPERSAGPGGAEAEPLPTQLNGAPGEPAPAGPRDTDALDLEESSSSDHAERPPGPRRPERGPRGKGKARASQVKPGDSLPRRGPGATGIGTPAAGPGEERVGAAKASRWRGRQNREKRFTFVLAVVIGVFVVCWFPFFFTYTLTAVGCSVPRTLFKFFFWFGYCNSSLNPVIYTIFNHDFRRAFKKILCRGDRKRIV

D3 receptor = biological target: T3, D3 receptor (Homo sapiens, UniProt P35462); test: Eurofins Cerep competition binding assay at D3 receptor; settings: test ligand 10 μM; [3H]methylspiperone […]; recombinant receptor, CHO membranes
T3 construct: host or cells: CHO
T3 sequence (P35462 whole entry): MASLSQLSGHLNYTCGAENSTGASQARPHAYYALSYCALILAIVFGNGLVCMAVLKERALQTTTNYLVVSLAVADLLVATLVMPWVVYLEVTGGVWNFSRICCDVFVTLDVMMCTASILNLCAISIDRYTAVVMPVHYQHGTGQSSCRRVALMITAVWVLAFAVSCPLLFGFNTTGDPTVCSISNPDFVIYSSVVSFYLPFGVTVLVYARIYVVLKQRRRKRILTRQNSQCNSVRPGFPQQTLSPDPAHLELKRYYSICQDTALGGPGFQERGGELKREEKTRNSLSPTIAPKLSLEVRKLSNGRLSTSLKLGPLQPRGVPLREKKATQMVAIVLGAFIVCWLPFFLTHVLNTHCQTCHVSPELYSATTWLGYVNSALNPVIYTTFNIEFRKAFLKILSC

5-HT1A receptor [1] = biological target: T4, 5-HT1A receptor (Homo sapiens, UniProt P08908); test: Eurofins Cerep competition binding assay at 5-HT1A receptor; settings: test ligand 10 μM; [3H]8-OH-DPAT 0.5 nM; recombinant receptor, HEK-293 membranes
T4 construct: purchased Perkin Elmer 6110501400UA
T4 sequence (P08908 1-422): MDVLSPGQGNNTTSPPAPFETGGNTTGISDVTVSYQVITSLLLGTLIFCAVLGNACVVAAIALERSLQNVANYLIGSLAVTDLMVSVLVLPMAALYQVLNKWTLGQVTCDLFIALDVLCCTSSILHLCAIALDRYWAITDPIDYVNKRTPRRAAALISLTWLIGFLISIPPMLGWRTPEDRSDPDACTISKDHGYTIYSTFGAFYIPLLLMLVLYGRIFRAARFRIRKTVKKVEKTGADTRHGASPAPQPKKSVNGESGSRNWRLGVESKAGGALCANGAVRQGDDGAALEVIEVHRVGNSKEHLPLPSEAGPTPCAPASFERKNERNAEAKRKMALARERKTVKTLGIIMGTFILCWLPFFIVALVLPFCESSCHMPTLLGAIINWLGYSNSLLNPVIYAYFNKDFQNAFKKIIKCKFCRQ

[2] = biological target: T5, serotonin transporter (SERT) (Homo sapiens, UniProt P31645); assay type: binding
T5 construct: host or cells: CHO
T5 sequence (P31645 whole entry): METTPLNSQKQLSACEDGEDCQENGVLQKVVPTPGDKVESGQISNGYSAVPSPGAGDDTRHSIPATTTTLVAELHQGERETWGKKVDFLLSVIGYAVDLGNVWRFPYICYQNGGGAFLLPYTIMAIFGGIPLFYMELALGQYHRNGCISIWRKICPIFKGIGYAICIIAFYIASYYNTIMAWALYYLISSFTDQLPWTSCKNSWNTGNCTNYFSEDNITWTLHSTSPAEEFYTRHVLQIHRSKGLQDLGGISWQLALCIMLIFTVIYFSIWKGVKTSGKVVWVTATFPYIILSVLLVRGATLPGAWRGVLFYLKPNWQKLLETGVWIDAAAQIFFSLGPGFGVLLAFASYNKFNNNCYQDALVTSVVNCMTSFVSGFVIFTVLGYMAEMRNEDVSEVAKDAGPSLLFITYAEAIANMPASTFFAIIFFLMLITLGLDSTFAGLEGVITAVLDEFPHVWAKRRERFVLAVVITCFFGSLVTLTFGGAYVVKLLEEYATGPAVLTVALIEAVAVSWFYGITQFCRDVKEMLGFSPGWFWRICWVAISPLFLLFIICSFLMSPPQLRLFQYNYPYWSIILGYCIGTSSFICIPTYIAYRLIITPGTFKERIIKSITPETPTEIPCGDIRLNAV

[3] = biological target: T6, norepinephrine transporter (NET) (Homo sapiens, UniProt P23975); test: Eurofins Cerep competition binding assay at norepinephrine transporter; settings: test ligand 10 μM; [3H]nisoxetine 1 nM; recombinant transporter, CHO membranes
T6 construct: host or cells: CHO
T6 sequence (P23975 whole entry): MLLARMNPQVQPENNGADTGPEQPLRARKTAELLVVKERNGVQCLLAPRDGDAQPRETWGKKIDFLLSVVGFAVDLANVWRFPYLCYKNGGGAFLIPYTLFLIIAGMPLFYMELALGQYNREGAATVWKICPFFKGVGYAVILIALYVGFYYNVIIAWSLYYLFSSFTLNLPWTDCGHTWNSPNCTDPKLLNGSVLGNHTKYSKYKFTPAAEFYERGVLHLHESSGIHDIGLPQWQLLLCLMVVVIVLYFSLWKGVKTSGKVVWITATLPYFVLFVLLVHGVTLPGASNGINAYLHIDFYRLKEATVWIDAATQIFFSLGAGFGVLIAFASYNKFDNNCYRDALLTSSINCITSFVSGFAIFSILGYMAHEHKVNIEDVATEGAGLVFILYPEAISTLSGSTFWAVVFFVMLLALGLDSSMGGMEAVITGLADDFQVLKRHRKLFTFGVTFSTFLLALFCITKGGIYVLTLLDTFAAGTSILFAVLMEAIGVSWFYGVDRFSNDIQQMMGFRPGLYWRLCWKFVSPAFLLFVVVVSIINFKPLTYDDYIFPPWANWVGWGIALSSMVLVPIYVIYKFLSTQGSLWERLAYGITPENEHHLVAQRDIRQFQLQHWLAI

5-HT2A receptor [4] = biological target: T7, 5-HT2A receptor (Homo sapiens, UniProt P28223); test: 5-HT2A receptor radioligand competition assay (SPA, [3H]ketanserin); assay type: binding; settings: for Ki: SPA competition, 1 nM [3H]ketanserin, membranes containing 5-HT2A; for 5-HT2A receptor binding, in words (competition curves FIGS. 23B-23H): ligand 3 nM to 1 mM
T7 construct: host or cells: HEK-293
T7 sequence (P28223 whole entry): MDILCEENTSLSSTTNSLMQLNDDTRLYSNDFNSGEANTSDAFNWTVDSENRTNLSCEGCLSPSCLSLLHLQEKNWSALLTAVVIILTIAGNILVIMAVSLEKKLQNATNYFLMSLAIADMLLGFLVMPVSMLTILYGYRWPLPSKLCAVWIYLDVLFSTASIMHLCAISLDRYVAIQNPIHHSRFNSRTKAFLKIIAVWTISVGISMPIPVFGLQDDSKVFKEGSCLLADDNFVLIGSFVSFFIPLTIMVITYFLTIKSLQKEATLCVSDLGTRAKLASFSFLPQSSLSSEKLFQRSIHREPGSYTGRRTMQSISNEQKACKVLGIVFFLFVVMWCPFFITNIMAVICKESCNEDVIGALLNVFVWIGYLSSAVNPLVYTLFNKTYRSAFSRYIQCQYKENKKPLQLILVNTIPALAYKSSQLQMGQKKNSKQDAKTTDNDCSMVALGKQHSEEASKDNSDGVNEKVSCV

5-HT2B receptor = biological target: T8, 5-HT2B receptor (Homo sapiens, UniProt P41595); test: Eurofins Cerep competition binding assay at 5-HT2B receptor; settings: test ligand 10 μM; [3H]mesulergine 2 nM; recombinant receptor, CHO membranes
T8 construct: host or cells: CHO
T8 sequence (P41595 whole entry): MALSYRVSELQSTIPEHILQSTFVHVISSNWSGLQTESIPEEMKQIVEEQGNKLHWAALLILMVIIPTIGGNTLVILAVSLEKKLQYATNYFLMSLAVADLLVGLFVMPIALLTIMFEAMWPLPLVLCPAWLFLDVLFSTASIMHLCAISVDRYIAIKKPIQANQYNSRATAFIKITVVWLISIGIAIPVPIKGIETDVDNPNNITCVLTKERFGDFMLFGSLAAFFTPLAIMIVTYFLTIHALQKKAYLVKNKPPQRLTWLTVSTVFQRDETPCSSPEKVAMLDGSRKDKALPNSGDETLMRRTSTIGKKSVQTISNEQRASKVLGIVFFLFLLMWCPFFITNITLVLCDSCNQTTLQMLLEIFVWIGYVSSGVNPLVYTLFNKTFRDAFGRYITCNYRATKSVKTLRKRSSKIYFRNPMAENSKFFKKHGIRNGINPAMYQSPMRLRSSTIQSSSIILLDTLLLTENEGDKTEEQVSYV

[5] = biological target: T9, dopamine transporter (DAT) (Homo sapiens, UniProt Q01959); test: Eurofins Cerep competition binding assay at dopamine transporter; settings: test ligand 10 μM; [3H]BTCP 4 nM; recombinant transporter, CHO membranes
T9 construct: host or cells: CHO
T9 sequence (Q01959 whole entry): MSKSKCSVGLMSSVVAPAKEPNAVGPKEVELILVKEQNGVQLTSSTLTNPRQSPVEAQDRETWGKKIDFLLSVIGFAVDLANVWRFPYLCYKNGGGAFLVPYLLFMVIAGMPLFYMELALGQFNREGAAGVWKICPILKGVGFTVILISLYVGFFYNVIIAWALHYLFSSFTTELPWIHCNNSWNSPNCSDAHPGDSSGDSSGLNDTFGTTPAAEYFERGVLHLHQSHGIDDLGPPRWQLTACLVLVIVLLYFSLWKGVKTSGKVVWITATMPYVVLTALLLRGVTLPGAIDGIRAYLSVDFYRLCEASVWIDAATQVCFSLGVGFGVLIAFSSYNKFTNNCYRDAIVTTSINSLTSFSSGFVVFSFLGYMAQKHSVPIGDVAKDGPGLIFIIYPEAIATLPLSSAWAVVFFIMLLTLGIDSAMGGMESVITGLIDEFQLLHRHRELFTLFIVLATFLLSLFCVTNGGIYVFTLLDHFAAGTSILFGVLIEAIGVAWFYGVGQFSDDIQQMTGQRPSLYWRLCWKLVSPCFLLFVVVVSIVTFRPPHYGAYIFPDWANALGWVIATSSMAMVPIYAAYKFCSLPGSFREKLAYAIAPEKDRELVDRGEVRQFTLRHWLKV

5-HT1A receptor [6] = biological target: T4, 5-HT1A receptor; test: 5-HT1A receptor radioligand competition assay (SPA, 8-hydroxy-DPAT); assay type: binding; settings: for 5-HT1A receptor binding, in words (competition curves FIGS. 22B-22L): ligand 3 nM to 1 mM
D2 receptor = biological target: T10, D2 receptor (Homo sapiens, UniProt P14416); test: Eurofins Cerep competition binding assay at D2 receptor; settings: test ligand 10 μM; [3H]methylspiperone 0.3 nM; recombinant receptor, HEK-293 membranes
T10 construct: host or cells: HEK-293
T10 sequence (P14416 1-414 isoform P14416-2): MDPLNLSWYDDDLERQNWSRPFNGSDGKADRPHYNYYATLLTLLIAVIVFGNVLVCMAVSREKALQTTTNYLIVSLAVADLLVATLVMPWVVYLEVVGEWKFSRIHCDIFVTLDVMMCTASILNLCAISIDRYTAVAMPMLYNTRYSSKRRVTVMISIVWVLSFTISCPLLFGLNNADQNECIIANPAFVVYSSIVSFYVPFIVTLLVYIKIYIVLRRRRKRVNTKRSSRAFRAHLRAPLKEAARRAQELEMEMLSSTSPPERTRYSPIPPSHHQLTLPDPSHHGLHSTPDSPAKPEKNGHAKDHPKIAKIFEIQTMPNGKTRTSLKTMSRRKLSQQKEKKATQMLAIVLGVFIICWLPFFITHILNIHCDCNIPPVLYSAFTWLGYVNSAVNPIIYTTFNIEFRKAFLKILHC

5-HT2A receptor [7] = biological target: T7, 5-HT2A receptor; assay type: binding; settings: test ligand 10 μM; [125I](±)DOI 0.1 nM; recombinant receptor, HEK-293 membranes
MT1 receptor = biological target: T11, MT1 receptor (Homo sapiens, UniProt P48039); test: Eurofins Cerep competition binding assay at MT1 receptor; settings: test ligand 10 μM; [125I]2-iodomelatonin 0.01 nM; recombinant receptor, CHO membranes
T11 construct: host or cells: CHO
T11 sequence (P48039 whole entry): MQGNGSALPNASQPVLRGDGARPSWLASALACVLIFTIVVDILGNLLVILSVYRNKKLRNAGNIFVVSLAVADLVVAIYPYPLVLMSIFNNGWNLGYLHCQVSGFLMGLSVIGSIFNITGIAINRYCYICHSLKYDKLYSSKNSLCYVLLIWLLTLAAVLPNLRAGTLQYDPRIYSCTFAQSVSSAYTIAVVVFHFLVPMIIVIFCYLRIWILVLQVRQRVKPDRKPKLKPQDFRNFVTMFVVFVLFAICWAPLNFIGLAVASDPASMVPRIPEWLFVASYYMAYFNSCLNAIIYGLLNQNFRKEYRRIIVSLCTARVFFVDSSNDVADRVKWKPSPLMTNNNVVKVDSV

| Structure (SMILES) | HT2C, percent of control-specific binding (5-HT2C receptor) [%] | inhibition at 10 µM (alpha2A receptor) [%] | D3, percent of control-specific binding (D3 receptor) [%] | HT1A, percent of control-specific binding (5-HT1A receptor [1]) [%] | SERT, percent of control-specific binding [2] [%] | NET, percent of control-specific binding [3] [%] | Ki (5-HT2A receptor [4]) [µM] | HT2B, percent of control-specific binding (5-HT2B receptor) [%] | DAT, percent of control-specific binding [5] [%] | Ki (5-HT1A receptor [6]) [µM] | D2, percent of control-specific binding (D2 receptor) [%] | HT2A, percent of control-specific binding (5-HT2A receptor [7]) [%] | MT1, percent of control-specific binding (MT1 receptor) [%] | 5-HT2A receptor binding, in words (competition curves FIGS. 23B-23H) (5-HT2A receptor [4]) | 5-HT1A receptor binding, in words (competition curves FIGS. 22B-22L) (5-HT1A receptor [6]) |
| --- | --- | --- | --- | --- | --- | --- | --- | --- | --- | --- | --- | --- | --- | --- | --- |
| CC(C(=O)N1CCCC1)c1ccc2c(c1)OCO2 (racemic) [Ax(II)] | 0 | 0 | 0 | 3 | 2 | 0 | 591 | 5 | 5 | 108 | 0 | 0 | 5 |  |  |
| CNC(C)Cc1ccc2c(c1)OCO2 (stereo not drawn) [MDMA, reference compound] |  |  |  |  |  |  |  |  |  |  | −10 |  |  |  |  |
| CC(C(=O)N(C)Cc1ccccc1)c1ccc2c(c1)OCO2 (racemic) [Ax(V)] | 16 | 0 | 8 | 2 | 0 | 13 | 83 | 30 | 71 | 186 | 0 | 2 | 55 |  |  |
| CC(CN(C)Cc1ccccc1)c1ccc2c(c1)OCO2 (racemic) [Bx(V)] | 42 | 24 | 19 | 17 | 46 | 47 | 63 | 41 | 78 | 45 | 12 | 13 | 9 | above levels observed for negative control | above levels observed for negative controls |
| CCOc1c(OC)cc(CCN)cc1OC [escaline] |  |  |  |  |  |  |  |  |  |  | 5 |  |  |  | binding to 5-HT1A receptor |
| COc1cc(CCN)c(OC)cc1Br [2C-B, reference compound] |  |  |  |  |  |  |  |  |  |  | 42 |  |  |  |  |
| N[C@@H](Cc1c[nH]c2ccccc12)C(=O)O [tryptophan, reference compound] |  |  |  |  |  |  |  |  |  |  |  |  |  | lack of binding at the 5-HT2A receptor | no binding |
| c1cc2c(cc1CC1=NCCO1)OCO2 [C(III)] | 12 | 19 | 10 | 24 | 0 | 0 |  | 19 | 19 | 31 | 0 | 0 | 12 |  |  |
| CCCOc1c(OC)cc(CCN)cc1OC [proscaline, reference compound] |  |  |  |  |  |  |  |  |  |  |  |  |  |  | binding to 5-HT1A receptor |
| CN(C)CCc1c[nH]c2cccc(O)c12 [psilocin, reference compound] |  |  |  |  |  |  |  |  |  |  |  |  |  | binding at the 5-HT2A receptor |  |
| COc1cc(CC(C)N)c(OC)cc1Br (stereo not drawn) [DOB, reference compound] |  |  |  |  |  |  |  |  |  |  | 9 |  |  |  |  |
| CC(CN1CCCC1)c1ccc2c(c1)OCO2 (racemic) [Bx(II)] | 52 | 19 | 14 | 36 | 81 | 9 |  | 38 | 79 | 14 | 6 | 10 | 0 |  |  |
| CN(C)CCCN1c2ccccc2CCc2ccccc21 [Imipramine, imipramine, reference compound] |  |  |  |  | 98 |  |  |  |  |  |  |  |  |  |  |
